In US20070207952A1, “Long Acting Biologically Active Conjugates” (priority 2003, published 2007):
Where a SMILES comes first, the peptide text is derived from it. [ ]: non-standard residue; d: D form. The star is where a group is joined. Propanoyl(3-maleimido) = O=C1C=CC(=O)N1CCC(=O)*; Nle = CCCC[C@H](N)C(=O)O; AEEA = NCCOCCOCC(=O)O

Experiments:
[1] = Kilby et al 1998; cited from earlier work
HIV NL4-3 = assay: Antiviral cytotoxicity (MTT) assay with MT4 cells, HIV NL4-3; assay type: cell-based, HIV-1; details: MT-4 cells, 5 days, average of 2 or 3 experiments
Protocol: (§1) Antiviral potency of the peptides was analyzed against HIV-1 HXB2 or NLA-3 strains using a cytotoxicity assay with MT4 cells as previously described (ref 1-3) with minor modifications. MT-4 cells (1.5×10^4/ml) were exposed to 200 50% tissue culture infective doses (TCID50) of viruses in the presence of various concentrations of test compound in 96 well microtiter plates and incubated at 37° C. for 5 days. Cytotoxicity of HIV was measured by the addition of 3-(4,5-dimethylthiazol-2-yl)-2,5-diphenytetrazolium bromide (MMI) solution to each well to a final concentration of 0.75 mg/ml, and incubation for 1 hour a 37° C. After incubation, cells were dissolved in isopropanoyrriton-X 100/HCl (1000:50:25) solution. Absorbance was monitored in a microplate reader (Spectramax, Molecular Devices) at 540 rm and 690 nm. MT-4 cells were obtained from the AIDS Research and Reference Reagent Program (ARRRP, Division of AIDS, NIAID, NIH: MT-4 from Dr. D. Richman). Cells were propagated in RPMI 1640 growth medium supplemented with 10% fetal bovine serum, 50U of penicillin and 50 μg of streptomycin per ml ([Ivitrogen, Carlsbad Calif.).

HIV-1 IIIB = assay: Antiviral cytotoxicity (MTT) assay with MT4 cells, HIV-1 IIIB; assay type: cell-based; details: MT-4 cells, 5 days, average of 2 or 3 experiments
HBX2 HIV-1 = assay: Antiviral cytotoxicity assay with MT4 cells, modified peptides and conjugates; assay type: cell-based; details: HBX2 HIV-1, MT4 cells; average of 2-3 experiments
Protocol: as §1

Compound | half-life [1] | IC50 (HIV NL4-3) | IC50 (HIV-1 IIIB) | IC50 (HBX2 HIV-1)
enfuvirtide | 1.8 h | 120 nM | 4.7 nM | –
CCCC[C@H](NC(=O)[C@H](Cc1c[nH]c2ccccc12)NC(=O)COCCOCCNC(=O)CCN1C(=O)C=CC1=O)C(=O)N[C@@H](CCC(=O)O)C(=O)N[C@@H](Cc1c[nH]c2ccccc12)C(=O)N[C@@H](CC(=O)O)C(=O)N[C@@H](CCCNC(=N)N)C(=O)N[C@@H](CCCCN)C(=O)N[C@H](C(=O)N[C@@H](CCC(=O)O)C(=O)N[C@@H](CCC(=O)O)C(=O)N[C@@H](Cc1ccc(O)cc1)C(=O)N[C@H](C(=O)N[C@@H](CCCCN)C(=O)N[C@@H](CCCCN)C(=O)N[C@H](C(=O)N[C@@H](CCCCN)C(=O)N[C@@H](CCCCN)C(=O)N[C@@H](CC(C)C)C(=O)N[C@H](C(=O)N[C@@H](CCC(=O)O)C(=O)N[C@@H](CCC(=O)O)C(=O)N[C@@H](CO)C(=O)N[C@@H](CCC(N)=O)C(=O)N[C@@H](CCC(=O)O)C(=O)N[C@@H](CCC(N)=O)C(=O)N[C@@H](CCC(N)=O)C(=O)N[C@@H](CCC(=O)O)C(=O)N[C@@H](CCCCN)C(=O)N[C@@H](CC(N)=O)C(=O)N[C@@H](CCC(=O)O)C(=O)N[C@@H](CCCCN)C(=O)N[C@@H](CCC(=O)O)C(=O)N[C@@H](CC(C)C)C(=O)N[C@@H](CCCCN)C(N)=O)[C@@H](C)CC)[C@@H](C)CC)[C@@H](C)O)[C@@H](C)CC [SPI-70038] ({Propanoyl(3-maleimido)-AEEA}-W[Nle]EWDRKIEEYTKKIKKLIEESQEQQEKNEKELK-NH2) | – | – | – | 2 nM
CCCC[C@H](NC(=O)[C@H](Cc1c[nH]c2ccccc12)NC(C)=O)C(=O)N[C@@H](CCC(=O)O)C(=O)N[C@@H](Cc1c[nH]c2ccccc12)C(=O)N[C@@H](CC(=O)O)C(=O)N[C@@H](CCCNC(=N)N)C(=O)N[C@@H](CCCCN)C(=O)N[C@H](C(=O)N[C@@H](CCC(=O)O)C(=O)N[C@@H](CCC(=O)O)C(=O)N[C@@H](Cc1ccc(O)cc1)C(=O)N[C@H](C(=O)N[C@@H](CCCCN)C(=O)N[C@@H](CCCCN)C(=O)N[C@H](C(=O)N[C@@H](CCCCN)C(=O)N[C@@H](CCCCN)C(=O)N[C@@H](CC(C)C)C(=O)N[C@H](C(=O)N[C@@H](CCC(=O)O)C(=O)N[C@@H](CCC(=O)O)C(=O)N[C@@H](C)C(=O)N[C@@H](CCC(N)=O)C(=O)N[C@@H](CCC(=O)O)C(=O)N[C@@H](CCC(N)=O)C(=O)N[C@@H](CCC(N)=O)C(=O)N[C@@H](CCC(=O)O)C(=O)N[C@@H](CCCCN)C(=O)N[C@@H](CC(N)=O)C(=O)N[C@@H](CCC(=O)O)C(=O)N[C@@H](CCCCN)C(=O)N[C@@H](CCC(=O)O)C(=O)N[C@@H](CC(C)C)C(=O)N[C@@H](CCCCN)C(N)=O)[C@@H](C)CC)[C@@H](C)CC)[C@@H](C)O)[C@@H](C)CC [peptide 8, Ac-WXEWDRKIEEYTKKIKKLIEEAQEQQEKNEKELK-NH2] (Ac-W[Nle]EWDRKIEEYTKKIKKLIEEAQEQQEKNEKELK-NH2) | – | 1.2 nM | 2.6 nM | –
CCCC[C@H](NC(=O)[C@H](Cc1c[nH]c2ccccc12)NC(C)=O)C(=O)N[C@@H](CCC(=O)O)C(=O)N[C@@H](Cc1c[nH]c2ccccc12)C(=O)N[C@@H](CC(=O)O)C(=O)N[C@@H](CCCNC(=N)N)C(=O)N[C@@H](CCC(=O)O)C(=O)N[C@@H](Cc1c[nH]c2ccccc12)C(=O)N[C@@H](CC(N)=O)C(=O)N[C@@H](CC(N)=O)C(=O)N[C@@H](Cc1ccc(O)cc1)C(=O)N[C@H](C(=O)N[C@@H](CO)C(=O)N[C@@H](CC(C)C)C(=O)N[C@H](C(=O)N[C@@H](Cc1c[nH]cn1)C(=O)N[C@@H](CO)C(=O)N[C@@H](CC(C)C)C(=O)N[C@H](C(=O)N[C@@H](CCC(=O)O)C(=O)N[C@@H](CCC(=O)O)C(=O)N[C@@H](CO)C(=O)N[C@@H](CCC(N)=O)C(=O)N[C@@H](CC(N)=O)C(=O)N[C@@H](CCC(N)=O)C(=O)N[C@@H](CCC(N)=O)C(=O)N[C@@H](CCC(=O)O)C(=O)N[C@@H](CCCCN)C(=O)N[C@@H](CC(N)=O)C(=O)N[C@@H](CCC(=O)O)C(=O)N[C@@H](CCC(N)=O)C(=O)N[C@@H](CCC(=O)O)C(=O)N[C@@H](CC(C)C)C(=O)N[C@@H](CC(C)C)C(N)=O)[C@@H](C)CC)[C@@H](C)CC)[C@@H](C)O [peptide 3, Ac-WXEWDREWNNYTSLIHSLIEESQNQQEKNEQELL-NH2] (Ac-W[Nle]EWDREWNNYTSLIHSLIEESQNQQEKNEQELL-NH2) | – | 7.6 nM | 1.7 nM | –
CCCC[C@H](NC(=O)[C@H](Cc1c[nH]c2ccccc12)NC(C)=O)C(=O)N[C@@H](CCC(=O)O)C(=O)N[C@@H](Cc1c[nH]c2ccccc12)C(=O)N[C@@H](CC(=O)O)C(=O)N[C@@H](CCCNC(=N)N)C(=O)N[C@@H](CCC(=O)O)C(=O)N[C@@H](CCC(N)=O)C(=O)N[C@@H](CC(N)=O)C(=O)N[C@@H](CC(N)=O)C(=O)N[C@@H](Cc1ccc(O)cc1)C(=O)N[C@H](C(=O)N[C@@H](CO)C(=O)N[C@@H](CC(C)C)C(=O)N[C@H](C(=O)N[C@@H](Cc1c[nH]cn1)C(=O)N[C@@H](CO)C(=O)N[C@@H](CC(C)C)C(=O)N[C@H](C(=O)N[C@@H](CCC(=O)O)C(=O)N[C@@H](CCC(=O)O)C(=O)N[C@@H](CO)C(=O)N[C@@H](CCC(N)=O)C(=O)N[C@@H](CC(N)=O)C(=O)N[C@@H](CCC(N)=O)C(=O)N[C@@H](CCC(N)=O)C(=O)N[C@@H](CCC(=O)O)C(=O)N[C@@H](CCCCN)C(=O)N[C@@H](CC(N)=O)C(=O)N[C@@H](CCC(=O)O)C(=O)N[C@@H](CCC(N)=O)C(=O)N[C@@H](CCC(=O)O)C(=O)N[C@@H](CC(C)C)C(=O)N[C@@H](CC(C)C)C(N)=O)[C@@H](C)CC)[C@@H](C)CC)[C@@H](C)O [peptide 2, Ac-WXEWDREQNNYTSLIHSLIEESQNQQEKNEQELL-NH2] (Ac-W[Nle]EWDREQNNYTSLIHSLIEESQNQQEKNEQELL-NH2) | – | 18 nM | 2.4 nM | –
